Measured values reported in patent US10674732B2, “Anti-phytopathogenic compositions” (The State of Israel, Ministry Of Agriculture & Rural …, priority 2015, dated 2020).
Converted amounts (≈) assume the structure as drawn.

tested on: Spiroplasma melliferum; experiment: Microplate test of spiroplasma growth (OD=595 nm); format: cell-based; conditions: 1 mM, single compound
Method: For this reason, the potential inhibition of these substances was tested on Spiroplasma melliferum, a cultivable Mollicute. The experiment was conducted in a 96-wells microplate. 150 μl fresh broth containing phenol red and 4 μl spiroplasma cells (app. 10^5 cells) were added to each well. […] The microplate was incubated for two days at 28° C. and the color of the medium was scored by a plate-reader (Multiskan EX, Thermo scientific, Waltham, Mass. USA) at OD=595 nm.

Row | Compound | spiroplasma growth inhibition
1 | c1cc2cnccn2c1 [Pyrrolo[1,2-a]pyrazine] | at 2 mM only
2 | O=Cc1ccnc2ccccc12 [Quinolinecarboxaldehyde, 4-Quinolinecarboxaldehyde] | inhibited

same assay, conditions: 2 mM, single compound

Row | Compound | spiroplasma growth inhibition
3 | c1cc2cnccn2c1 [Pyrrolo[1,2-a]pyrazine] | inhibit
4 | O=Cc1ccnc2ccccc12 [Quinolinecarboxaldehyde, 4-Quinolinecarboxaldehyde] | inhibited

same assay, conditions: Spiroplasma melliferum, 48 h; two days at 28° C., FIG. 9; read-out: minimum inhibitory concentration (MIC)

Row | Compound | MIC [µM]
5 | CN(C)[C@@H]1C(O)=C(C(N)=O)C(=O)[C@@]2(O)C(O)=C3C(=O)c4c(O)cccc4[C@@](C)(O)[C@H]3[C@H](O)[C@@H]12 [oxytetracycline] | 350 (≈ 161 µg/mL)

same assay, conditions: concentrations examined (2-0.02 mM), single compound

Row | Compound | spiroplasma growth inhibition
6 | O=Cc1ccc(CO)o1 [Hydroxymethyl-2-furaldehyde, 5-Hydroxymethyl-2-furaldehyde] | No inhibition

same assay, conditions: two days at 28° C.

Row | Compound | minimum inhibitory concentration (MIC) compared with reference oxytetracycline
7 | O=Cc1ccnc2ccccc12 [Quinolinecarboxaldehyde, 4-Quinolinecarboxaldehyde] | higher than the reference antibiotics

tested on: DLB; experiment: DLB antibiotic susceptibility test; format: cell-based, Dyella-like bacterium; conditions: not given

Row | Compound | Inhibition cycle diameter | resistance of the bacterium to the antibiotic
8 | CCn1cc(C(=O)O)c(=O)c2ccc(C)nc21 [nalidixic acid] | 1 mm | resistant
9 | C[C@@H](O)[C@H]1C(=O)N2C(C(=O)O)=C(SCCN=CN)C[C@H]12 [imipenem] | 2-3 mm | –
10 | C[C@@H](O)[C@H]1C(=O)N2C(C(=O)O)=C(S[C@@H]3CN[C@H](C(=O)N(C)C)C3)[C@H](C)[C@H]12 [meropenem] | 1 mm | resistant
11 | COc1cc(Cc2cnc(N)nc2N)cc(OC)c1OC [trimethoprime] | 10 mm | –
12 | O=C1CN(/N=C/c2ccc([N+](=O)[O-])o2)C(=O)N1 [nitrofuration] | 2 mm | resistant
13 | CCn1cc(C(=O)O)c(=O)c2cc(F)c(N3CCNCC3)cc21 [norfloxacin] | 2 mm | resistant
14 | CC(=O)OCC1=C(C(=O)O)N2C(=O)[C@@H](NC(=O)Cc3cccs3)[C@H]2SC1 [cephalothin] | 2 mm | resistant
15 | neomycin | 10 mm | –
16 | CC1(C)S[C@@H]2[C@H](NC(=O)[C@H](N)c3ccc(O)cc3)C(=O)N2[C@H]1C(=O)O [amoxycillin] | 10 mm | –
17 | C[C@H]1[C@H](NC(=O)/C(=N\OC(C)(C)C(=O)O)c2csc(N)n2)C(=O)N1S(=O)(=O)O [aztreonam] | 1 mm | resistant
18 | CO/N=C(\C(=O)N[C@@H]1C(=O)N2C(C(=O)O)=C(COC(N)=O)CS[C@H]12)c1ccco1 [cefuroxime] | 1 mm | resistant
19 | [H]/N=C(/N)N[C@H]1[C@H](O)[C@@H](O)[C@H](O[C@@H]2O[C@@H](C)[C@](O)(C=O)[C@H]2O[C@@H]2O[C@@H](CO)[C@H](O)[C@@H](O)[C@@H]2NC)[C@@H](N/C(N)=N\[H])[C@@H]1O [streptomycin] | 10 mm | –
20 | CC1(C)S[C@@H]2[C@H](NC(=O)C(C(=O)O)c3ccccc3)C(=O)N2[C@H]1C(=O)O (stereo partly shown) [carbencillin] | 10 mm | –
21 | O=C(N[C@H](CO)[C@H](O)c1ccc([N+](=O)[O-])cc1)C(Cl)Cl [chloramphenicol] | 10 mm | –
22 | CN(C)[C@@H]1C(O)=C(C(N)=O)C(=O)[C@@]2(O)C(O)=C3C(=O)c4c(O)cccc4[C@@](C)(O)[C@H]3C[C@@H]12 [tetracycline] | 10 mm | –
23 | CC1(C)S[C@@H]2[C@H](NC(=O)[C@H](C(=O)O)c3ccsc3)C(=O)N2[C@H]1C(=O)O [ticarcillin] | 10 mm | –
24 | CO/N=C(\C(=O)N[C@@H]1C(=O)N2C(C(=O)[O-])=C(C[N+]3(C)CCCC3)CS[C@H]12)c1csc(N)n1 [cefeprime] | 1 mm | resistant
25 | NCC[C@H](O)C(=O)N[C@@H]1C[C@H](N)[C@@H](O[C@H]2O[C@H](CN)[C@@H](O)[C@H](O)[C@H]2O)[C@H](O)[C@H]1O[C@H]1O[C@H](CO)[C@@H](O)[C@H](N)[C@H]1O [amikacin] | 10 mm | –
26 | polymyxin-B | 10 mm | –
27 | CCN1CCN(C(=O)N[C@@H](C(=O)N[C@@H]2C(=O)N3[C@@H]2SC(C)(C)[C@@H]3C(=O)O)c2ccccc2)C(=O)C1=O [piperacillin] | 10 mm | –
28 | CC1(C)S[C@@H]2[C@H](NC(=O)[C@H](N)c3ccccc3)C(=O)N2[C@H]1C(=O)O [ampicilin A] | 10 mm | –
29 | colistinsulfate | 2-3 mm | resistant
30 | NC[C@H]1O[C@H](O[C@H]2[C@H](O)[C@@H](O[C@H]3O[C@H](CO)[C@@H](O)[C@H](N)[C@H]3O)[C@H](N)C[C@@H]2N)[C@H](O)[C@@H](O)[C@@H]1O [kanamycin] | 10 mm | –
31 | gentanicin G | 10 mm | –
32 | NC[C@H]1O[C@H](O[C@H]2[C@H](O)[C@@H](O[C@H]3O[C@H](CO)[C@@H](O)[C@H](N)[C@H]3O)[C@H](N)C[C@@H]2N)[C@H](N)C[C@@H]1O [tobaramycin] | 10 mm | –
33 | CO/N=C(\C(=O)N[C@@H]1C(=O)N2C(C(=O)O)=C(CSc3nc(=O)c(=O)[nH]n3C)CS[C@H]12)c1csc(N)n1 [ceftriaxone] | 10 mm | –
34 | O=C(O)c1cn(C2CC2)c2cc(N3CCNCC3)c(F)cc2c1=O [ciprofloxacin] | 2 mm | resistant
35 | Cc1cc(NS(=O)(=O)c2ccc(N)cc2)no1 [sulphamethoxazole] | 10 mm | –
36 | CN[C@H](CC(C)C)C(=O)N[C@H]1C(=O)N[C@@H](CC(N)=O)C(=O)N[C@H]2C(=O)N[C@H]3C(=O)N[C@H](C(=O)N[C@H](C(=O)O)c4cc(O)cc(O)c4-c4cc3ccc4O)[C@H](O)c3ccc(c(Cl)c3)Oc3cc2cc(c3O[C@@H]2O[C@H](CO)[C@@H](O)[C@H](O)[C@H]2O[C@H]2C[C@](C)(N)[C@H](O)[C@H](C)O2)Oc2ccc(cc2Cl)[C@H]1O [vancomycin] | 10 mm | –

tested on: spiroplasma; experiment: Antagonistic test of the bacteria's specific compounds (synthetic compounds on spiroplasma in vitro); format: cell-based, Spiroplasma melliferum; conditions: 1 milimolar, three days at 29° C.
Method: After potential inhibitory compounds (4-Quinolinecarboxaldehyde and 5-Hydroxymethyl-2-furaldehyde) were identified in the active fraction extracts of the bacteria's supernatant, parallel synthetic compound were purchased (Sigma) and examined on spiroplasma in vitro: 1 ml of spiroplasma medium, 10 μl spiroplasma cells and 10 μl of each compound (final concentration of 1 milimolar) were incubated for three days at 29° C. […] Changes in the indicator color from red to yellow indicated spiroplasma growth.

Row | Compound | spiroplasma growth inhibition
37 | O=Cc1ccnc2ccccc12 [Quinolinecarboxaldehyde, 4-Quinolinecarboxaldehyde] | able to inhibit
38 | O=Cc1ccc(CO)o1 [Hydroxymethyl-2-furaldehyde, 5-Hydroxymethyl-2-furaldehyde] | no inhibition

tested on: Spiroplasma melliferum; experiment: Antagonistic test of the bacteria's supernatant (time to color change of phenol red medium); conditions: 0.5 μg/ml

Row | Compound | Inhibition index (ratio of days to color change to the time required in the positive control)
39 | CN(C)[C@@H]1C(O)=C(C(N)=O)C(=O)[C@@]2(O)C(O)=C3C(=O)c4c(O)cccc4[C@@](C)(O)[C@H]3[C@H](O)[C@@H]12 [oxytetracycline] | 2.3
